Legend:
MDA-MB-231 cells [1] = assay: Cell uptake of DOX@HAuNS and DOX@PEG-HAuNS (fluorescence and dark-field microscopy); type: cell-based, human; conditions: without NIR laser; 1 h to 48 h incubation
Experimental: MDA-MB-231 cells were transferred and cultured onto 20-mm glass cover slips in a 24-well plate and allowed to grow for 2 days. Then the medium was replaced with 1 mL of fresh culture medium containing free DOX, DOX@HAuNS, or DOX@PEG-HAuNS. After incubation for 1 hr or 48 h, the cell monolayer on the cover slip was removed, repeatedly rinsed with PBS, and then mounted for microscopic examination. The cellular fluorescence and dark-field light scattering images were examined under a Zeiss Axio Observer.Z1 fluorescence microscope (Carl Zeiss MicroImaging GmbH, USA) equipped with a dark-field condenser.
In a separated experiment, MDA-MB-231 cells cultured on 20-mm glass cover slips were irradiated with NIR laser (1.0 W/cm^2 for 3 min per treatment, 4 treatments in 2 h). Cell nuclei were stained with DAPI. The cellular fluorescence and light scattering images were obtained as described in the preceding paragraph.

MDA-MB-231 cells [2] = assay: Cytotoxicity of DOX-HAuNS and DOX-PEG-HAuNS (MTT); type: cell-based, human; conditions: equivalent DOX concentration 10 μg/mL, no NIR
Experimental: A total of 2.0×10^4 cells were plated in 96-well plates and incubated for 24 h to allow the cells to attach. The cells were exposed to free DOX, DOX@HAuNS, or DOX@PEG-HAuNS with various DOX concentrations. The cells were or were not irradiated with NIR laser at an output power of 2 W/cm^2 (3 min per treatment, 4 treatments in 2 h). Then the cells were incubated at 37° C. for a further 48 h. […] The data reported represented the means of triplicate measurements. In a separate experiment, the cells were exposed to HAuNS with various Au concentrations and then were or were not irradiated with NIR laser under the same conditions. Cell survival efficiency was measured after the incubation at 37° C. for 48 h.

SMILES: COc1cccc2c1C(=O)c1c(O)c3c(c(O)c1C2=O)C[C@@](O)(C(=O)CO)C[C@@H]3O[C@H]1C[C@H](N)[C@H](O)[C@H](C)O1 [free DOX, doxorubicin]
- cellular uptake and intracellular distribution (MDA-MB-231 cells [1]): taken up by the tumor cells and distributed to cell nuclei
- cells killed (MDA-MB-231 cells [2]): 77.4%

From patent US20110318415A1, “Hollow Gold Nanospheres (HAuNSs) and HAuNSs-Loaded Microspheres Useful in Drug Delivery” (priority 2009, published 2011)
